According to patent US20250074943A1, “DLL3 BINDING PEPTIDES AND USES THEREOF” (AMGEN INC., priority 2021, published 2025):
Numbered stars: 1 amine (or outer) side, 2 acyl side, 3 side chain; on linkers, the order of the positions; unused ones are H or OH. Bridge positions count the residues as written; N and C are the ends. Primed or numbered codes have the meaning given here. Ends that are not written are not given here. I, II: the chains in the order shown. X15 = NC(=O)[C@H](CCCCNC(=O)CCOCCOCCOCCN(CCOCCOCCOCCC(=O)NCCCC[C@H](NC(=O)CCC(=O)NCCCOCCOCCOCCCN[*:2])C(N)=O)C(=O)CNC(=O)CCOCCOCCOCCOCCNC(=O)CCC(=O)N1Cc2ccccc2C#Cc2ccccc21)NC(=O)CCC(=O)NCCCOCCOCCOCCCN[*:1]; K(PEG4-DBCO-FEA) = Lys whose side chain carries PEG4-DBCO conjugated to fluoroethylazide (FEA); Ttds(4) = trioxatridecan-succinamic acid (linker), O=C(CCC(=O)[*:2])NCCCOCCOCCOCCCN[*:1]; Ttds(3) = Trioxatridecan-succinamic acid linker, O=C(CCC(=O)[*:2])NCCCOCCOCCOCCCN[*:1]

How the values were obtained:
rhDLL3-Fc = biological target: T1, rhDLL3-Fc (Homo sapiens, UniProt Q9NYJ7); experiment: SPR binding / off-rate screening (Biacore T200); conditions: for binding to rhDLL3-Fc, complex half-life: single point SPR; for koff / kon: Table 8, curve fitting of SPR sensorgrams; for koff: read-out: koff; for kon: read-out: kon
T1 construct: The recombinant DLL3 ectodomain (rhDLL3-Fc) was biotinylated; Fc
T1 sequence (Q9NYJ7 27-492 limits assumed): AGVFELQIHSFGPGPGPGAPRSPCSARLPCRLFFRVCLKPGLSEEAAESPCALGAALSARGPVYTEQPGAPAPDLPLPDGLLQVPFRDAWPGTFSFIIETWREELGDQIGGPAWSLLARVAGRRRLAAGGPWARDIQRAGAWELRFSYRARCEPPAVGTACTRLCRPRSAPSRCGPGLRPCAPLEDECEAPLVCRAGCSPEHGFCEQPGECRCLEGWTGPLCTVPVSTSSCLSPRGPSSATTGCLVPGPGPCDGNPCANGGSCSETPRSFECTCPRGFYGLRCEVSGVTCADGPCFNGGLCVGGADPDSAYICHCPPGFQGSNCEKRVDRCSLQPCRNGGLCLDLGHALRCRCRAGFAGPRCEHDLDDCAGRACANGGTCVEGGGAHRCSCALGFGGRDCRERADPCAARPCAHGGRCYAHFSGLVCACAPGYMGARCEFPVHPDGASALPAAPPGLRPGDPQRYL
Procedure: […] The recombinant DLL3 ectodomain (rhDLL3-Fc) was biotinylated using EZ-Link Sulfo-NHS-LC-LC-Biotin Kit according to the manufacturer's protocol (Pierce by Thermo Fisher Scientific). The recombinant protein was incubated with an excess of NHS-LC-LC Biotin ester, in a molar ratio of 1:3 (protein: biotin), at 25° C. for 90 min. The un-reacted biotin ester was removed by subsequent buffer exchange on 0.5 ml Zeba spin desalting columns 7K MWCO (Pierce by Thermo Fisher Scientific).
The off-rate screening of the peptides was done using a Biacore T200 instrument (Cytiva, Sweden). […] Sensorgrams were analyzed by Biacore T200 Evaluation Software 3.0 (Cytiva, Sweden): specific binding was obtained by subtracting unspecific binding to naked biosensors and a zero analyte concentration made of binding assay buffer (double referencing). […]

[1] = biological target: T2, native huDLL3 on the surface of cells (CHO cells) (Homo sapiens, UniProt Q9NYJ7); experiment: Flow cytometry competition with AF647-labelled peptide; format: cell-based; conditions: compared with monomer PepSP1146
T2 construct: expressed in transfected cells; host or cells: CHO (CHO-huDLL3)
T2 sequence (Q9NYJ7 27-618): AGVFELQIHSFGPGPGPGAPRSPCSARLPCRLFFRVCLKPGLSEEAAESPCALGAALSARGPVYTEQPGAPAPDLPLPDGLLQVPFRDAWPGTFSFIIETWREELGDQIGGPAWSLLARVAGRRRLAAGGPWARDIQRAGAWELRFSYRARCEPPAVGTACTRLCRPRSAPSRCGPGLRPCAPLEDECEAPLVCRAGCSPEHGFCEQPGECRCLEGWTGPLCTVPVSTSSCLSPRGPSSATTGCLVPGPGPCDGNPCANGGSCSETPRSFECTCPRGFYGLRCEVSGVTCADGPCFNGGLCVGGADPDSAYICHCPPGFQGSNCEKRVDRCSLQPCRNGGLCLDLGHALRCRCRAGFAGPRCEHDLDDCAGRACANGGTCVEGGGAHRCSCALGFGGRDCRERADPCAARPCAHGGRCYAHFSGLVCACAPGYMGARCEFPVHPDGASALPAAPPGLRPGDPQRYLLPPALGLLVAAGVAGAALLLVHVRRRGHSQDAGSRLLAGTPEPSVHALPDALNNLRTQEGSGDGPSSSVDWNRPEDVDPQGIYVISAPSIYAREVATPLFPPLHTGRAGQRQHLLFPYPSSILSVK
Procedure: HEK293-huDLL3, CHO-huDLL3 and the corresponding parental cell lines were detached with EDTA 2.5 mM and re-suspended at 1.8×10^6 cells/ml in FACS buffer (1×PBS, 2% FBS), distributed at 500 μl per testing tube and pelleted 5 min at 1300 rpm in a Heraeus Multifuge […] centrifuge.

Compound | binding to rhDLL3-Fc, complex half-life (rhDLL3-Fc) | koff (rhDLL3-Fc) [s⁻¹] | kon (rhDLL3-Fc) [M⁻¹ s⁻¹] | further results
[Ac-AETVEFWWCNGNSENWTCTW-GG-Ttds-K(PEG3)]2-PEG4-DBCO-FEA (Ac-AETVEFWWCNGNSENWTCTWGG-{Ttds(4)-K(PEG3)}; not fully specified (bridges); printed as [Ac-AETVEFWWCNGNSENWTCTW-GG-Ttds-K(PEG3)]2-PEG4-DBCO-FEA; cysteine pairing not given here; also: dimer linked via PEG4-DBCO-FEA) [PepSP1581] | tight rhDLL3-Fc binders with a stable complex half-life |  |  | 
AETVEFWSCVVYGDNWTCSS-CONH2 (AETVEFWSCVVYGDNWTCSS-NH2; disulfide 9-18 (inferred)) [PepSP1172] |  |  |  | efficiency in competing the binding of the AF647-labelled PepSP1146 [1]: most efficient binder
CCCCOCCOCCOCCC(=O)CCCCCCCCCCCCCCCC(=O)CCC(=O)NCCCOCCOCCOCCCNC(=O)CCC(=O)CCCCC[C@@H](CC(=O)CCC(=O)NCCCOCCOCCOCCCNC(=O)CNC(=O)CNC(=O)[C@@H](Cc1c[nH]c2ccccc12)NC(=O)[C@H](CC(=O)[C@H]1CCCC[C@@H](CN[C@@H](Cc2c[nH]c3ccccc23)NC(=O)[C@@H](Cc2c[nH]c3ccccc23)NC(=O)[C@H](CC(=O)[C@@H](CCC(=O)O)CC(=O)[C@H](CC(=O)[C@](C)(NC(=O)[C@@H](CCC(C)=O)CC(=O)CCC(C)=O)C(C)C)C(C)C)Cc2ccccc2)C(=O)C[C@H](CC(C)=O)C(=O)NCC(=O)NC(CC(C)=O)C(=O)C[C@H](CC)C(=O)NC(CCC(C)=O)C(=O)C[C@H](CC(C)=O)C(=O)CC(Cc2c[nH]c3ccccc23)C(=O)C[C@H]([C@H](C)O)C(=O)C1)[C@H](C)O)C(C)=O (some centres unmarked) [PepSP1489] |  | 0.00037 | 110000 | 
Ac-AETVEFWWCNGNSENWTCTW-GG-Ttds-K(PEG4-DBCO-FEA)-NH2 (Ac-AETVEFWWCNGNSENWTCTWGG-{Ttds(3)-K(PEG4-DBCO-FEA)-NH2}; cysteine pairing not given here) [PepSP1538] | tight rhDLL3-Fc binders with a stable complex half-life |  |  | 
I: Ac-AETVEFWWCNGNSENWTCTWGG / II: Ac-AETVEFWWCNGNSENWTCTWGG (disulfide I:9-I:18, II:9-II:18; linker I:C-II:C via X15) [PepSP1487] |  | 0.00042 | 76000 | 
[Ac-AETVEFWWCNGNSENWTCTW-GG-Ttds-K(Ttds-Ttds-PEG3)]2-PEG4-DBCO- [PepSP1583] | tight rhDLL3-Fc binders with a stable complex half-life |  |  | 
